Measured values as given in US20070167456A1, “Mercaptoimidazoles as ccr2 receptor antagonists” (priority 2004, published 2007).

Legend:
CCR2 receptor = target: T1, CCR2 receptor (Homo sapiens, UniProt P41597); experiment: Inhibition of MCP-1 induced Ca-flux in human THP-1 cells; type: cell-based; conditions: inhibition of specific MCP-1 induced Ca2+ flux, 10^-7 M hMCP-1, 20 minutes pre-incubation, FLIPR, Fluo-3 AM
T1 construct: host or cells: THP-1 (human monocytic cell line)
T1 sequence (P41597 1-360 isoform P41597-2): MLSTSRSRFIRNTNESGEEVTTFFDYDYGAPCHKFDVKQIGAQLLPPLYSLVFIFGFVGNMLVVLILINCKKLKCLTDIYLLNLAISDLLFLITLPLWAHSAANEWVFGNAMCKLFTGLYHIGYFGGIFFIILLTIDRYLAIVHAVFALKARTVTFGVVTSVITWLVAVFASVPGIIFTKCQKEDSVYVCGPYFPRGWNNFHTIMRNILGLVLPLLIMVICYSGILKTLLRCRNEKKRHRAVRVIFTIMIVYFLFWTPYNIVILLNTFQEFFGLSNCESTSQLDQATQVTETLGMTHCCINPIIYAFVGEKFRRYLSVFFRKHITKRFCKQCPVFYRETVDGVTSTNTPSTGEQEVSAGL
Protocol: Inhibition of MCP-1 Induced Ca-flux in Human THP-1 Cells
MCP-1 binding to the CCR2 receptor induces a rapid and transient intracellular release of Ca^2+ (secondary messenger) in several cell lines (Charo et al, PNAS 1994). Free Ca^2+ levels can be measured using a Ca^2+ sensitive dye. When the CCR2 receptor is blocked with a CCR2 receptor antagonist, the MCP-1 induced release of Ca^2+ is inhibited.
Human THP-1 cells (monocytic cell line, ATCC TIB-202) were cultured in RPMI 1640 medium supplemented with 10% fetal calf serum (FCS), 1% L-Glutamine, penicillin (50 U/ml) and streptomycin (50 μg/ml) (all GIBCO BRL, Gent). After centrifugation, cells were loaded for 30 minutes with the Ca^2+ sensitive fluorescent dye Fluo-3 AM (Molecular Probes, Leiden, Netherlands) (2 million cells/ml in RPMI medium containing 4 μM Fluo-3 AM, 20 mM HEPES, 0.1% Bovine Serum Albumin (BSA) and 5 mM probenecid). Excess dye was removed by 3-fold washing with buffer (5 mM HEPES, 140 mM NaCl, 1 mM MgCl2, 5 mM KCl, 10 mM glucose, 2.5 mM probenecid, 1.25 mM CaCl2, 0.1% BSA; all further incubations were done in this buffer). Cells were plated at a density of 150 000 cells/well in dark-wall 96-well plates (Costar, Cambridge, Mass.) and sedimented by centrifugation (1 minute). The cells were pre-incubated for 20 minutes with test compound. Then, 10^−7 M hMCP-1 (Bachem, Bubendorf, Switserland) was added. Changes in intracellular free Ca^2+ concentration were measured using the Fluorescent Imaging Plate Reader (FLIPR, Molecular Devices, Munchen, Germany). Fluorescence was recorded every second from 10 seconds before the addition of the MCP-1 till 2 minutes after the addition (first minute: 60 records with 1 second intervals, second minute 20 records with 3 second intervals). The maximal fluorescence obtained during this time frame was used for further calculations.
Table 3 reports pIC50 values obtained in the above-described test for compounds of formula (I). pIC50 defines −log IC50 wherein IC50 is the molar concentration of the test compound which inhibits 50% of specific MCP-1 induced Ca^2+ flux.

SMILES	IC50 (CCR2 receptor) [nM]	melting point [°C]
CCC(c1ccc(Cl)c(Cl)c1)n1c(C(=O)OC)c(N)[nH]c1=S (stereo not drawn) [Compound 1]	63.1	183.9 to 184
CCC(c1ccc(Cl)c(Cl)c1)n1c(C(=O)OC)c(NC(C)=O)[nH]c1=S (stereo not drawn) [Compound 2]	50.1	–
CCC(c1ccc(Cl)c(Cl)c1)n1c(C(=O)OC)c(NC(=O)c2cnccn2)[nH]c1=S (stereo not drawn) [Compound 3]	79.4	196.9 to 198.6
CCC(=O)Nc1[nH]c(=S)n(C(CC)c2ccc(Cl)c(Cl)c2)c1C(=O)OC (stereo not drawn) [Compound 4]	126	–
CCC(c1ccc(Cl)c(Cl)c1)n1c(C(=O)OC)c(NC(=O)c2cccnc2)[nH]c1=S (stereo not drawn) [Compound 5]	200	–
CCC(c1ccc(Cl)c(Cl)c1)n1c(C(=O)OC)c(NC(=O)c2nonc2C)[nH]c1=S (stereo not drawn) [Compound 8]	501	–
CCC(c1ccc(Cl)c(Cl)c1)n1c(C(=O)OC)c(NC(=O)OC)[nH]c1=S (stereo not drawn) [Compound 15]	15.8	–
CCC(c1ccc(Cl)c(Cl)c1)n1c(C(=O)OC)c(NC(=O)N2CCOCC2)[nH]c1=S (stereo not drawn) [Compound 18]	100	–
CCC(c1ccc(Cl)c(Cl)c1)n1c(C(=O)OC)c(NC(=O)N2CCN(C)CC2)[nH]c1=S (stereo not drawn) [Compound 20]	316	–

Second part, led by results:

IC50 (CCR2 receptor) [nM]	SMILES	melting point [°C]
126	CCC(c1ccc(Cl)c(Cl)c1)n1c(C(=O)OC)c(NC(=O)c2ccncc2)[nH]c1=S (stereo not drawn) [Compound 6]	–
158	CCC(c1ccc(Cl)c(Cl)c1)n1c(C(=O)OC)c(NC(=O)c2cc(C)on2)[nH]c1=S (stereo not drawn) [Compound 7]	–
200	CCC(c1ccc(Cl)c(Cl)c1)n1c(C(=O)OC)c(NC(=O)c2cncnc2)[nH]c1=S (stereo not drawn) [Compound 9]	–
200	CCC(c1ccc(Cl)c(Cl)c1)n1c(C(=O)OC)c(NC(=O)c2ccccc2)[nH]c1=S (stereo not drawn) [Compound 10]	–
25.1	CCC(c1ccc(Cl)c(Cl)c1)n1c(C(=O)OC)c(NC(=O)c2ccco2)[nH]c1=S (stereo not drawn) [Compound 11]	–
39.8	CCC(c1ccc(Cl)c(Cl)c1)n1c(C(=O)OC)c(NC(=O)c2ccccn2)[nH]c1=S (stereo not drawn) [Compound 12]	–
79.4	CCC(c1ccc(Cl)c(Cl)c1)n1c(C(=O)OC)c(NC(=O)C2CCOC2)[nH]c1=S (stereo not drawn) [Compound 13]	–
251	CCC(c1ccc(Cl)c(Cl)c1)n1c(C(=O)OC)c(NC(=O)NCC(OC)OC)[nH]c1=S (stereo not drawn) [Compound 16]	–
631	CCC(c1ccc(Cl)c(Cl)c1)n1c(C(=O)OC)c(NC(=O)NCc2ccccc2)[nH]c1=S (stereo not drawn) [Compound 17]	–
79.4	CCC(c1ccc(Cl)c(Cl)c1)n1c(C(=O)OC)c(NC(=O)C2CCCO2)[nH]c1=S (stereo not drawn) [Compound 19]	–
126	CCC(c1ccc(Cl)c(Cl)c1)n1c(C(=O)OC)c(NC(=O)N2CCCC2)[nH]c1=S (stereo not drawn) [Compound 21]	–
398	CCC(c1ccc(Cl)c(Cl)c1)n1c(C(=O)OC)c(NC(=O)N2CCN(Cc3ccccc3)CC2)[nH]c1=S (stereo not drawn) [Compound 22]	–
158	CCC(c1ccc(Cl)c(Cl)c1)n1c(C(=O)OC)c(NC(=O)N2CCCCC2)[nH]c1=S (stereo not drawn) [Compound 23]	–
